Measurements taken from ChEMBL document CHEMBL4251572, “Novel aminopyrimidinyl benzimidazoles as potentially antimicrobial agents: Design, synthesis and biological evaluation” (Eur J Med Chem, 2018).
Converted amounts (≈) assume the structure as drawn.

Columns and labels:
Candida albicans = test: Antifungal against Candida albicans ATCC 76615 after 24 hrs by two fold serial dilution method; format: functional; conditions: ATCC 76615, 24 h
Aspergillus flavus = test: Antifungal against Aspergillus flavus after 24 hrs by two fold serial dilution method; format: functional
Bacillus subtilis = test: Antibacterial activity against Bacillus subtilis after 24 hrs by micro broth dilution assay; format: functional
Salmonella typhi = test: Antibacterial activity against Bacillus typhi after 24 hrs by micro broth dilution assay; format: functional, Salmonella enterica subsp. enterica serovar Typhi; conditions: Salmonella enterica
Staphylococcus aureus [1] = test: Antibacterial activity against Staphylococcus aureus ATCC 25923 after 24 hrs by micro broth dilution assay; format: functional; conditions: ATCC 25923, 24 h
Saccharomyces cerevisiae = test: Antifungal against Saccharomyces cerevisiae after 24 hrs by two fold serial dilution method; format: functional
Staphylococcus aureus [2] = test: Antibacterial activity against methicillin-resistant Staphylococcus aureus N315 after 24 hrs by micro broth dilution assay; format: functional; conditions: N315, 24 h
Pseudomonas aeruginosa = test: Antibacterial activity against Pseudomonas aeruginosa after 24 hrs by micro broth dilution assay; format: functional
Pichia norvegensis = test: Antifungal against Candida mycoderma after 24 hrs by two fold serial dilution method; format: functional
Cyberlindnera jadinii = test: Antifungal against Candida utilis after 24 hrs by two fold serial dilution method; format: functional; conditions: Williopsis jadinii
Shigella dysenteriae = test: Antibacterial activity against Shigella dysenteriae after 24 hrs by micro broth dilution assay; format: functional
Micrococcus luteus = test: Antibacterial activity against Micrococcus luteus ATCC4698 after 24 hrs by micro broth dilution assay; format: functional; conditions: ATCC4698, 24 h
Escherichia coli [3] = test: Antibacterial activity against Escherichia coli JM109 after 24 hrs by micro broth dilution assay; format: functional; conditions: JM109, 24 h
Bacillus = test: Antibacterial activity against Bacillus proteus ATCC 13315 after 24 hrs by micro broth dilution assay; format: functional; conditions: ATCC 13315, 24 h
Escherichia coli [4] = test: Antibacterial activity against Escherichia coli DH52 after 24 hrs by micro broth dilution assay; format: functional; conditions: DH52, 24 h

| SMILES | MIC (Candida albicans) | MIC (Aspergillus flavus) | MIC (Bacillus subtilis) | MIC (Salmonella typhi) | MIC (Staphylococcus aureus [1]) | MIC (Saccharomyces cerevisiae) | MIC (Staphylococcus aureus [2]) | MIC (Pseudomonas aeruginosa) | MIC (Pichia norvegensis) | MIC (Cyberlindnera jadinii) | MIC (Shigella dysenteriae) | MIC (Micrococcus luteus) | MIC (Escherichia coli [3]) | MIC (Bacillus) | MIC (Escherichia coli [4]) |
| --- | --- | --- | --- | --- | --- | --- | --- | --- | --- | --- | --- | --- | --- | --- | --- |
| CCCCCCCCn1c(-c2cc(-c3ccc(C)cc3)nc(N)n2)nc2ccccc21 | 512 µg/mL (≈ 1240 µM) | 512 µg/mL (≈ 1240 µM) | 512 µg/mL (≈ 1240 µM) | 512 µg/mL (≈ 1240 µM) | 512 µg/mL (≈ 1240 µM) | 128 µg/mL (≈ 310 µM) | 512 µg/mL (≈ 1240 µM) | 512 µg/mL (≈ 1240 µM) | 512 µg/mL (≈ 1240 µM) | 16 µg/mL (≈ 38.7 µM) | 512 µg/mL (≈ 1240 µM) | 16 µg/mL (≈ 38.7 µM) | 128 µg/mL (≈ 310 µM) | 512 µg/mL (≈ 1240 µM) | 8 µg/mL (≈ 19.3 µM) |
| CCCCn1c(C(=O)/C=C/c2ccc(C)cc2)nc2ccccc21 | 16 µg/mL (≈ 50.2 µM) | 4 µg/mL (≈ 12.6 µM) | 128 µg/mL (≈ 402 µM) | 128 µg/mL (≈ 402 µM) | 32 µg/mL (≈ 100 µM) | 4 µg/mL (≈ 12.6 µM) | 64 µg/mL (≈ 201 µM) | 16 µg/mL (≈ 50.2 µM) | 128 µg/mL (≈ 402 µM) | 512 µg/mL (≈ 1610 µM) | 128 µg/mL (≈ 402 µM) | 32 µg/mL (≈ 100 µM) | 128 µg/mL (≈ 402 µM) | 512 µg/mL (≈ 1610 µM) | 512 µg/mL (≈ 1610 µM) |
| Cc1ccc(/C=C/C(=O)c2nc3ccccc3[nH]2)cc1 | 4 µg/mL (≈ 15.2 µM) | 16 µg/mL (≈ 61 µM) | 16 µg/mL (≈ 61 µM) | 2 µg/mL (≈ 7.62 µM) | 8 µg/mL (≈ 30.5 µM) | 8 µg/mL (≈ 30.5 µM) | 8 µg/mL (≈ 30.5 µM) | 4 µg/mL (≈ 15.2 µM) | 32 µg/mL (≈ 122 µM) | 16 µg/mL (≈ 61 µM) | 16 µg/mL (≈ 61 µM) | 16 µg/mL (≈ 61 µM) | 4 µg/mL (≈ 15.2 µM) | 4 µg/mL (≈ 15.2 µM) | 8 µg/mL (≈ 30.5 µM) |
| CCCCCCCCn1c(C(=O)/C=C/c2ccc(F)cc2)nc2ccccc21 | 512 µg/mL (≈ 1350 µM) | 256 µg/mL (≈ 676 µM) | 16 µg/mL (≈ 42.3 µM) | 128 µg/mL (≈ 338 µM) | 512 µg/mL (≈ 1350 µM) | 512 µg/mL (≈ 1350 µM) | 512 µg/mL (≈ 1350 µM) | 512 µg/mL (≈ 1350 µM) | 512 µg/mL (≈ 1350 µM) | 64 µg/mL (≈ 169 µM) | 512 µg/mL (≈ 1350 µM) | 32 µg/mL (≈ 84.5 µM) | 512 µg/mL (≈ 1350 µM) | 512 µg/mL (≈ 1350 µM) | 8 µg/mL (≈ 21.1 µM) |
| CCCCCCCCn1c(-c2cc(-c3ccc(F)cc3)nc(N)n2)nc2ccccc21 | 256 µg/mL (≈ 613 µM) | 128 µg/mL (≈ 307 µM) | 256 µg/mL (≈ 613 µM) | 512 µg/mL (≈ 1230 µM) | 256 µg/mL (≈ 613 µM) | 16 µg/mL (≈ 38.3 µM) | 256 µg/mL (≈ 613 µM) | 512 µg/mL (≈ 1230 µM) | 64 µg/mL (≈ 153 µM) | 8 µg/mL (≈ 19.2 µM) | 512 µg/mL (≈ 1230 µM) | 32 µg/mL (≈ 76.6 µM) | 256 µg/mL (≈ 613 µM) | 512 µg/mL (≈ 1230 µM) | 512 µg/mL (≈ 1230 µM) |
| CCCCn1c(C(=O)/C=C/c2ccc(F)cc2)nc2ccccc21 | 16 µg/mL (≈ 49.6 µM) | 128 µg/mL (≈ 397 µM) | 4 µg/mL (≈ 12.4 µM) | 8 µg/mL (≈ 24.8 µM) | 4 µg/mL (≈ 12.4 µM) | 512 µg/mL (≈ 1590 µM) | 8 µg/mL (≈ 24.8 µM) | 0.5 µg/mL (≈ 1.55 µM) | 64 µg/mL (≈ 199 µM) | 16 µg/mL (≈ 49.6 µM) | 4 µg/mL (≈ 12.4 µM) | 8 µg/mL (≈ 24.8 µM) | 16 µg/mL (≈ 49.6 µM) | 512 µg/mL (≈ 1590 µM) | 64 µg/mL (≈ 199 µM) |
| CCCCCCn1c(C(=O)/C=C/c2ccc(Cl)cc2)nc2ccccc21 | 512 µg/mL (≈ 1400 µM) | 128 µg/mL (≈ 349 µM) | 256 µg/mL (≈ 698 µM) | 128 µg/mL (≈ 349 µM) | 512 µg/mL (≈ 1400 µM) | 8 µg/mL (≈ 21.8 µM) | 512 µg/mL (≈ 1400 µM) | 512 µg/mL (≈ 1400 µM) | 128 µg/mL (≈ 349 µM) | 512 µg/mL (≈ 1400 µM) | 512 µg/mL (≈ 1400 µM) | 32 µg/mL (≈ 87.2 µM) | 512 µg/mL (≈ 1400 µM) | 512 µg/mL (≈ 1400 µM) | 16 µg/mL (≈ 43.6 µM) |
| CCCCCCCn1c(C(=O)/C=C/c2ccc(F)cc2)nc2ccccc21 | 512 µg/mL (≈ 1400 µM) | 512 µg/mL (≈ 1400 µM) | 512 µg/mL (≈ 1400 µM) | 512 µg/mL (≈ 1400 µM) | 512 µg/mL (≈ 1400 µM) | 512 µg/mL (≈ 1400 µM) | 64 µg/mL (≈ 176 µM) | 512 µg/mL (≈ 1400 µM) | 512 µg/mL (≈ 1400 µM) | > 512 µg/mL | 512 µg/mL (≈ 1400 µM) | 512 µg/mL (≈ 1400 µM) | 128 µg/mL (≈ 351 µM) | 512 µg/mL (≈ 1400 µM) | 512 µg/mL (≈ 1400 µM) |
| O=C(/C=C/c1ccc(F)cc1)c1nc2ccccc2[nH]1 | 128 µg/mL (≈ 481 µM) | 512 µg/mL (≈ 1920 µM) | 64 µg/mL (≈ 240 µM) | 32 µg/mL (≈ 120 µM) | 16 µg/mL (≈ 60.1 µM) | 4 µg/mL (≈ 15 µM) | 64 µg/mL (≈ 240 µM) | 128 µg/mL (≈ 481 µM) | 128 µg/mL (≈ 481 µM) | > 512 µg/mL | 256 µg/mL (≈ 961 µM) | 16 µg/mL (≈ 60.1 µM) | 16 µg/mL (≈ 60.1 µM) | 32 µg/mL (≈ 120 µM) | 64 µg/mL (≈ 240 µM) |
| CCCCn1c(-c2cc(-c3ccc(Cl)cc3Cl)nc(N)n2)nc2ccccc21 | 512 µg/mL (≈ 1240 µM) | 512 µg/mL (≈ 1240 µM) | 512 µg/mL (≈ 1240 µM) | 512 µg/mL (≈ 1240 µM) | 512 µg/mL (≈ 1240 µM) | 32 µg/mL (≈ 77.6 µM) | 512 µg/mL (≈ 1240 µM) | 128 µg/mL (≈ 310 µM) | 32 µg/mL (≈ 77.6 µM) | 64 µg/mL (≈ 155 µM) | 256 µg/mL (≈ 621 µM) | 16 µg/mL (≈ 38.8 µM) | 32 µg/mL (≈ 77.6 µM) | 512 µg/mL (≈ 1240 µM) | 512 µg/mL (≈ 1240 µM) |
| CCCCn1c(C(=O)/C=C/c2ccc(Cl)cc2)nc2ccccc21 | 256 µg/mL (≈ 756 µM) | 512 µg/mL (≈ 1510 µM) | 512 µg/mL (≈ 1510 µM) | 512 µg/mL (≈ 1510 µM) | 64 µg/mL (≈ 189 µM) | 16 µg/mL (≈ 47.2 µM) | 8 µg/mL (≈ 23.6 µM) | 512 µg/mL (≈ 1510 µM) | 256 µg/mL (≈ 756 µM) | 512 µg/mL (≈ 1510 µM) | 32 µg/mL (≈ 94.4 µM) | 512 µg/mL (≈ 1510 µM) | 256 µg/mL (≈ 756 µM) | 128 µg/mL (≈ 378 µM) | 512 µg/mL (≈ 1510 µM) |
